Source: patent publication US20150202243A1, “HDC Activation Inhibitor, HDC Activation Inhibition Composition, Antipruritic Agent, and Antipruritic Agent Composition” (HOYU CO., LTD., priority 2012, published 2015)
Where a name gives a salt, the structure may show the parent alone.

Test system: SL-induced scratching behavior in mice
Experiment: Inhibitory effect against sodium laurate-induced scratching behavior in mice
Format: in vivo, male ICR mice
Conditions: topical; for (b) average percentage of the number of scratches for 60 minutes relative to solvent control group taken as 100% / (a) mean plus/minus standard deviation of the number of scratches for 60 minutes: 10% SL 50 μL on rostral back, 90 min later 50 μL of 2.5% by mass test substance in 50% ethanol; for (a) mean plus/minus standard deviation of the number of scratches for 60 minutes: solvent control 80±2; for judgment of effectiveness as HDC activation inhibitor (antipruritic agent); effective if number of scratches is 80% or less of solvent control: 10% SL, 2.5% by mass test substance in 50% ethanol
Protocol: Test substances were evaluated for their HDC activation inhibitor (antipruritic agent) effect on the basis of their inhibitory effect on mice's scratching behavior induced by irritation with SL. The test substances used were apigenin, luteolin, sterubin, prunetin, tannic acid, chlorogenic acid, resveratrol, diphenhydramine hydrochloride, and d-chlorpheniramine maleate. Among these substances, diphenhydramine hydrochloride and d-chlorpheniramine maleate were conventionally known as antihistamic agents and served as comparative test substances.
Procedure: the test animals used were male ICR mice aged 7-8 weeks. At least 3 days before the test was conducted, the mice were shaved over a 6 cm^2 (2×3 cm) area on the rostral back.
The mice were divided into test substance group (n=3 or 4) and solvent control group (n=3). Fifty microliters of a 10% SL aqueous solution was applied to the rostral back of the mice to induce the mice's scratching behavior. Ninety minutes after the application of the SL solution, fifty microliters of a solution prepared with 50% ethanol to give a test substance concentration of 2.5% by mass was applied to the rostral back of the mice of the test substance group, and fifty microliters of 50% ethanol alone was applied to that of the solvent control group. The scratching behavior in the mice was evaluated by the following procedure.
More specifically, the mice treated as above were housed in acrylic cages (26×18×30 cm) divided into 4 sections, one mouse per section, and after the mice were acclimated for at least 30 minutes in an unattended environment, the behavior of the mice was recorded on video for 60 minutes. The recorded video was reviewed to check for the scratching behavior of the mice and visually count the number of a series of scratching behaviors which consist of an animal scratching the rostral back with a posterior leg and putting down the leg. Additionally, in the untreated group (n=4), the mice shaved on the rostral back but not treated with any of a SL solution, a test substance or 50% ethanol were evaluated for their scratching behavior by the same procedure.
According to these evaluation results, the number of scratches for 60 minutes is about 80 to 90 times in the solvent control, diphenhydramine hydrochloride, and d-chlorpheniramine maleate groups, while that number is about 40 times or less in all the test substance groups from apigenin to resveratrol. Regarding the inhibitory effect of the test substances on the number of scratches in mice, a possible criterion for judgment is that a test substance be judged to be effective as the HDC activation inhibitor (antipruritic agent) of the present invention if the number of scratches in the test substance group is 80% or less of that in the solvent control group.
In addition, with regard to FIG. 4, the values of the following two variables are listed below for each group: (a) the mean plus/minus standard deviation of the number of scratches for 60 minutes, and (b) the average value for the percentage of the number of scratches for 60 minutes in each group relative to that in the solvent control group which is taken as 100%.

## O=c1cc(-c2ccc(O)cc2)oc2cc(O)cc(O)c12 [Apigenin, apigenin]
  (b) average percentage of the number of scratches for 60 minutes relative to solvent control group taken as 100%: 40.5%
  (a) mean plus/minus standard deviation of the number of scratches for 60 minutes: 32±5

## O=C(/C=C/c1ccc(O)c(O)c1)O[C@@H]1C[C@](O)(C(=O)O)C[C@@H](O)[C@H]1O [Chlorogenic acid, chlorogenic acid]
  (b) average percentage of the number of scratches for 60 minutes relative to solvent control group taken as 100%: 50.8%
  (a) mean plus/minus standard deviation of the number of scratches for 60 minutes: 41±8

## CN(C)CC[C@@H](c1ccc(Cl)cc1)c1ccccn1.O=C(O)/C=C\C(=O)O [D-chlorpheniramine maleate, d-chlorpheniramine maleate, reference compound]
  (b) average percentage of the number of scratches for 60 minutes relative to solvent control group taken as 100%: 113.6%
  (a) mean plus/minus standard deviation of the number of scratches for 60 minutes: 91±28
  judgment of effectiveness as HDC activation inhibitor (antipruritic agent); effective if number of scratches is 80% or less of solvent control: not certain

## CN(C)CCOC(c1ccccc1)c1ccccc1 [Diphenhydramine hydrochloride, diphenhydramine hydrochloride, reference compound]
  (b) average percentage of the number of scratches for 60 minutes relative to solvent control group taken as 100%: 93.8%
  (a) mean plus/minus standard deviation of the number of scratches for 60 minutes: 75±25
  judgment of effectiveness as HDC activation inhibitor (antipruritic agent); effective if number of scratches is 80% or less of solvent control: not certain

## O=c1cc(-c2ccc(O)c(O)c2)oc2cc(O)cc(O)c12 [Luteolin, luteolin]
  (b) average percentage of the number of scratches for 60 minutes relative to solvent control group taken as 100%: 43.0%
  (a) mean plus/minus standard deviation of the number of scratches for 60 minutes: 34±3

## COc1cc(O)c2c(=O)c(-c3ccc(O)cc3)coc2c1 [Prunetin, prunetin]
  (b) average percentage of the number of scratches for 60 minutes relative to solvent control group taken as 100%: 52.7%
  (a) mean plus/minus standard deviation of the number of scratches for 60 minutes: 42±11

## Oc1ccc(/C=C/c2cc(O)cc(O)c2)cc1 [Resveratrol, 3,5,4′-trihydroxy-trans-stilbene]
  (b) average percentage of the number of scratches for 60 minutes relative to solvent control group taken as 100%: 31.7%
  (a) mean plus/minus standard deviation of the number of scratches for 60 minutes: 25±14

## COc1cc(O)c2c(c1)O[C@H](c1ccc(O)c(O)c1)CC2=O [Sterubin, sterubin]
  (b) average percentage of the number of scratches for 60 minutes relative to solvent control group taken as 100%: 44.4%
  (a) mean plus/minus standard deviation of the number of scratches for 60 minutes: 35±14

## O=C(OC[C@H]1O[C@@H](OC(=O)c2cc(O)c(O)c(OC(=O)c3cc(O)c(O)c(O)c3)c2)[C@H](OC(=O)c2cc(O)c(O)c(OC(=O)c3cc(O)c(O)c(O)c3)c2)[C@@H](OC(=O)c2cc(O)c(O)c(OC(=O)c3cc(O)c(O)c(O)c3)c2)[C@@H]1OC(=O)c1cc(O)c(O)c(OC(=O)c2cc(O)c(O)c(O)c2)c1)c1cc(O)c(O)c(OC(=O)c2cc(O)c(O)c(O)c2)c1 [Tannic acid, tannic acid]
  (b) average percentage of the number of scratches for 60 minutes relative to solvent control group taken as 100%: 53.7%
  (a) mean plus/minus standard deviation of the number of scratches for 60 minutes: 43±22
